From patent US20240132477A1, “Benzimidazole Derivatives and Their Use As Inhibitors of ITK For The Treatment of Skin Disease” (PFIZER INC., priority 2020, published 2024)

Experiments:
[1] = target: IL-2-Inducible T-Cell Kinase (ITK) (Homo sapiens (Human), UniProt Q08881); assay: ITK enzyme assay; assay type: biochemical; details: geometric mean of count n; ITK FL enzyme, BTK peptide substrate
Description: IL-2-Inducible T-Cell Kinase (ITK) Activity, IC50 (uM)
ITK activity was determined by measuring the effect of a test compound in an ITK enzyme assay.
1.0 M HEPES Buffer pH 7.5 solution was prepared as follows: 238.3 g HEPES free acid (Sigma) and 800 mL of water were combined, and the mixture was stirred until complete dissolution. The pH was adjusted to 7.5 via titration with 5N NaOH and the volume adjusted to 1000 mL. The solution was filtered and sterilized.
ITK assay buffer was prepared as follows: 50 mL of HPLC-grade water was treated with 2 mL of 1.0 M HEPES Buffer, 500 μL of 2% Gelatin (Sigma), 1.0 mL of aqueous MgCl2 solution (1.0 M), and 1.0 mL of aqueous glutathione solution (0.5 M), and the solution was mixed. The solution was brought to 99 mL in a graduated cylinder by addition of water and sterilized through a 0.2 μm filter. 0.1 mL of Brij-35™ Surfact-AmpS™ Detergent Solution (10% w/v aqueous solution, ThermoFisher) and 1.0 mL of ATP (Teknova, 100 mM) were added and the solution was mixed.
Preparation of 1.33×ITK enzyme solution was as follows: 49.99 mL of ITK assay buffer was treated with 4.1 μL of ITK enzyme (ITK FL (N-Flag and C-His tagged, ˜72 kDa) Lake Pharma, 0.25 mg/ml in a buffer containing 25 mM Tris pH 7.8, 150 mM NaCl, 10% glycerol and 2 mM TCEP) and the mixture was gently agitated. The resulting solution was stored on ice. 30 Minutes prior to use, the enzyme solution was removed from ice and equilibrated to RT by incubation in a RT water bath.
Preparation of 4×ITK substrate solution was as follows: 50 mL of ITK assay buffer was treated with 100 μL of BTK peptide (China Peptide Company, 2 mM stock solution in DMSO). The tube was capped, mixed by gently inverting the tube, and then stored on ice. 30 Minutes prior to use, the substrate solution was removed from ice and equilibrated to RT by incubation in a RT water bath.
At the time of assay, 7.5 μL of the 1.33×ITK enzyme solution was added to plate wells containing 0.1 μL of varying concentrations of test compound in DMSO. The plate was incubated 30 min at RT. The plate wells were each treated with 2.5 uL of the 4×ITK substrate solution and the plate was sealed (TopSeal™, Perkin Elmer). The plate was spun at 1000 rpm for 30 sec and then incubated for 60 min at RT. The seal was removed, and each well was treated with 10 μL of Stop/Detect Buffer (20 mM HEPES pH 7.5, 0.01% gelatin, 1 nM LANCE PT66 (Perkin Elmer), 16.5 μg/ml Surelight APC (Perkin Elmer), 10 mM EDTA, 250 mM NaCl). The plate was again covered and was spun at 1000 rpm for 30 seconds. The plate was allowed to incubate overnight at RT and in a closed carrier to reduce dehydration. The seal was removed, and the fluorescence was read with a plate reader with […]. The concentrations and resulting effect values for the tested compound were plotted and the concentration of compound required for 50% effect (IC50) was determined with the four-parameter logistic dose response equation.

[2] = test system: IL-2 in supernatants from activated CD4+ human T-cells; assay: IL-2 inhibition in supernatants from activated CD4+ human T-cells (cisbio HTRF); assay type: cell-based; details: T-cell; geometric mean of count n; activated CD4+ human T-cells, 20 to 24 hrs; read-out: IL-2 IC50
Description: IL-2-Inhibition Activity, IC50 (uM)
IL-2 inhibition activity in supernatants from activated CD4+ human T-cells was determined by measuring the effect of a test compound on the activity using the cisbio HTRF™ technology.
Human CD4+ T cells were activated with CD3/CD28 for 3 days and expanded for an additional 4-6 days (7 to 9 days total). On day 0, frozen CD4+ T cells were thawed, treated with CD3/CD28 Dynabeads, and incubated at 37° C./5% CO2. On day 3, the beads were removed, and the cells were diluted to 5×10^5 cells/cm^2, placed in G-Rex10 flask, and incubated at 37° C./5% CO2. On day 7 to day 9 the cells were removed from the G-Rex flasks, counted and diluted back to 1×10^6 cells/ml in standard tissue culture flask.
The expanded CD4+ T-cells were centrifuged at 300×g for 10 minutes and resuspended to 0.5 million cells per ml (30,000 cells/well). 60 μl of CD4+ T cells were added per well to a 384 well plate containing 0.1 μL of varying concentrations of test compound in DMSO. The plates were incubated for 15 min at 37° C./5% CO2. 20 μl of diluted ImmunoCult™ (STEMCELL Technologies, 1:12.5 in T cell assay media) were added to all wells of the plate (1:50 final assay concentration). The plates were incubated for an additional 20 to 24 hrs at 37° C./5% CO2. The plates were centrifuged at 300×g for 10 minutes. 16 μL of supernatant was removed and combined with 4 μl of IL-2 HTRF Abs. (cisbio kit). Plates were incubated for 3 hours at RT and read with an EnVision plate reader at 665 nm and 615 nm wavelengths. The concentrations and resulting effect values for the tested compound were plotted and the concentration of compound required for 50% effect (IC50) was determined with the four-parameter logistic dose response equation.

Chain of IL-2-Inducible T-Cell Kinase (ITK) (Q08881 whole entry): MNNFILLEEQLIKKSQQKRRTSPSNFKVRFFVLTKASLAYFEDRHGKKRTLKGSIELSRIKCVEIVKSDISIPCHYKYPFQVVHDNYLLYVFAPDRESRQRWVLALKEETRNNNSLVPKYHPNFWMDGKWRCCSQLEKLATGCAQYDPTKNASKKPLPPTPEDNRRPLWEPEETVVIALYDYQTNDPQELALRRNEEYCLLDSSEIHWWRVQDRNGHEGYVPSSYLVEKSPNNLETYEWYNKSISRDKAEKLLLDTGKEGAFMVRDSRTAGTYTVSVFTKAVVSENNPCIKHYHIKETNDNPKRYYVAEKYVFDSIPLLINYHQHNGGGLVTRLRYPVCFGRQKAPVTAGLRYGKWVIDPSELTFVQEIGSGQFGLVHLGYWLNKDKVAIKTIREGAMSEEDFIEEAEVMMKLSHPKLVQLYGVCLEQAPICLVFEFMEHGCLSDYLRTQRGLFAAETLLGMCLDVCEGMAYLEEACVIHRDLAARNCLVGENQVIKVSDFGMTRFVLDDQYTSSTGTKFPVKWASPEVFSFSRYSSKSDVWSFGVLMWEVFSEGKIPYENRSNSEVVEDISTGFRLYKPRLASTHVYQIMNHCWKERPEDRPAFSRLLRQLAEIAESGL

In the case of `Cc1cc2[nH]c(-c3n[nH]c4c3C[C@@H]3C[C@]3(C)C4)nc2cc1N(C)C(=O)CN1CCCOC1=O` [Example 1, N-Methyl-N-(6-methyl-2-((4aS,5aR)-5a-methyl-1,4,4a,5,5a,6-hexahydrocyclopropa[f]indazol-3-yl)-1H-benzo[d]imidazol-5-yl)-2-(2-oxo-1,3-oxazinan-3-yl)acetamide], the IC50 [1] is reported as 3 nM and the IC50 [2] is reported as 59 nM.
`CC(=O)N(C)c1ccc2[nH]c(-c3n[nH]c4c3C[C@H]3C(F)(F)[C@@]3(C)C4)nc2c1` [Example 3, N-(2-((4aR,5aS)-5,5-difluoro-5a-methyl-1,4,4a,5,5a,6-hexahydrocyclopropa[f]indazol-3-yl)-1H-benzo[d]imidazol-5-yl)-N-methylacetamide] gave an IC50 [1] of 821 nM and an IC50 [2] of 848 nM.
In the case of `CCN(C(C)=O)c1cc2nc(-c3n[nH]c4c3C[C@@H]3C[C@]3(C)C4)[nH]c2cc1C` [Example 5, N-ethyl-N-(6-methyl-2-((4aS,5aR)-5a-methyl-1,4,4a,5,5a,6-hexahydrocyclopropa[f]indazol-3-yl)-1H-benzo[d]imidazol-5-yl)acetamide], the IC50 [1] is reported as 16 nM and the IC50 [2] is reported as 86 nM.
Compound `CC(=O)N(C)c1cc2nc(-c3n[nH]c4c3C[C@@H]3C[C@]3(C)C4)[nH]c2c(F)c1C` [Example 8, N-(7-fluoro-6-methyl-2-((4aS,5aR)-5a-methyl-1,4,4a,5,5a,6-hexahydrocyclopropa[f]indazol-3-yl)-1H-benzo[d]imidazol-5-yl)-N-methylacetamide] has an IC50 [1] of 20 nM and an IC50 [2] of 129 nM.
Work on `CC(=O)N(C)c1cc2nc(-c3n[nH]c4c3C[C@@H]3C[C@]3(C)C4)[nH]c2cc1Br` [Example 9, N-(6-bromo-2-((4aS,5aR)-5a-methyl-1,4,4a,5,5a,6-hexahydrocyclopropa[f]indazol-3-yl)-1H-benzo[d]imidazol-5-yl)-N-methylacetamide] yielded an IC50 [1] of 20 nM and an IC50 [2] of 139 nM.
With `C[C@H](C(=O)N(C)c1cc(F)c2nc(-c3n[nH]c4c3C[C@@H]3C[C@]3(C)C4)[nH]c2c1)N1CCCOC1=O` [Example 10, (R)-N-(4-fluoro-2-((4aS,5aR)-5a-methyl-1,4,4a,5,5a,6-hexahydrocyclopropa[f]indazol-3-yl)-1H-benzo[d]imidazol-6-yl)-N-methyl-2-(2-oxo-1,3-oxazinan-3-yl)propenamide] the IC50 [1] was 49 nM and the IC50 [2] was 342 nM.
Work on `C[C@@H](C(=O)N(C)c1cc(F)c2nc(-c3n[nH]c4c3C[C@@H]3C[C@]3(C)C4)[nH]c2c1)N1CCCOC1=O` [Example 11, (S)-N-(4-fluoro-2-((4aS,5aR)-5a-methyl-1,4,4a,5,5a,6-hexahydrocyclopropa[f]indazol-3-yl)-1H-benzo[d]imidazol-6-yl)-N-methyl-2-(2-oxo-1,3-oxazinan-3-yl)propenamide] yielded an IC50 [1] of 31 nM and an IC50 [2] of 324 nM.
With `Cc1cc2nc(-c3n[nH]c4c3C[C@@H]3C[C@]3(C)C4)[nH]c2cc1N(C)C(=O)C1(F)CCOCC1` [Example 12, 4-fluoro-N-methyl-N-(5-methyl-2-((4aS,5aR)-5a-methyl-1,4,4a,5,5a,6-hexahydrocyclopropa[f]indazol-3-yl)-1H-benzo[d]imidazol-6-yl)tetrahydro-2H-pyran-4-carboxamide] the IC50 [1] was 7 nM and the IC50 [2] was 47 nM.
`Cc1cc2nc(-c3n[nH]c4c3C[C@@H]3C[C@]3(C)C4)[nH]c2cc1N(C)C(=O)C1C[C@@H]2[C@H](C1)C2(F)F` (stereo partly drawn) [Example 13, (1R,5S)-6,6-difluoro-N-methyl-N-(5-methyl-2-((4aS,5aR)-5a-methyl-1,4,4a,5,5a,6-hexahydrocyclopropa[f]indazol-3-yl)-1H-benzo[d]imidazol-6-yl)bicyclo[3.1.0]hexane-3-carboxamide] gave an IC50 [1] of 7 nM and an IC50 [2] of 49 nM.
`Cc1cc2[nH]c(-c3n[nH]c4c3C[C@@H]3C[C@]3(C)C4)nc2cc1N(C)C(=O)C(C)N1CCCCC1` (stereo partly shown) [Example 14] showed an IC50 [1] of 47 nM and an IC50 [2] of 196 nM.
For `Cc1cc2[nH]c(-c3n[nH]c4c3C[C@@H]3C[C@]3(C)C4)nc2cc1N(C)C(=O)C(C)N1CCCOCC1` (stereo partly drawn) [Example 15, N-methyl-N-(6-methyl-2-((4aS,5aR)-5a-methyl-1,4,4a,5,5a,6-hexahydrocyclopropa[f]indazol-3-yl)-1H-benzo[d]imidazol-5-yl)-2-(1,4-oxazepan-4-yl)propenamide], the IC50 [1] was 42 nM and the IC50 [2] was 166 nM.
`CCc1cc2[nH]c(-c3n[nH]c4c3C[C@@H]3C[C@]3(C)C4)nc2cc1N(C)C(C)=O` [Example 16, N-(6-ethyl-2-((4aS,5aR)-5a-methyl-1,4,4a,5,5a,6-hexahydrocyclopropa[f]indazol-3-yl)-1H-benzo[d]imidazol-5-yl)-N-methylacetamide] gave an IC50 [1] of 23 nM and an IC50 [2] of 118 nM.
With `Cc1cc2[nH]c(-c3n[nH]c4c3C[C@@H]3C[C@]3(C)C4)nc2cc1N(C)C(=O)C(C)N1CCCC1=O` (stereo partly drawn) [Example 18, N-Methyl-N-(5-methyl-2-((4aS,5aR)-5a-methyl-1,4,4a,5,5a,6-hexahydrocyclopropa[f]indazol-3-yl)-1H-benzo[d]imidazol-6-yl)-2-(2-oxopyrrolidin-1-yl)propenamide] the IC50 [1] was 54 nM and the IC50 [2] was 370 nM.
`Cc1cc2[nH]c(-c3n[nH]c4c3C[C@@H]3C[C@]3(C)C4)nc2cc1N(C)C(=O)C1CC1` [Example 19, N-Methyl-N-(5-methyl-2-((4aS,5aR)-5a-methyl-1,4,4a,5,5a,6-hexahydrocyclopropa[f]indazol-3-yl)-1H-benzo[d]imidazol-6-yl)cyclopropanecarboxamide] was tested, and the IC50 [1] was 8 nM and the IC50 [2] was 67 nM.
With `Cc1cc2[nH]c(-c3n[nH]c4c3C[C@@H]3C[C@]3(C)C4)nc2cc1N(C)C(=O)CN1CCCCC1=O` [Example 20, N-Methyl-N-(5-methyl-2-((4aS,5aR)-5a-methyl-1,4,4a,5,5a,6-hexahydrocyclopropa[f]indazol-3-yl)-1H-benzo[d]imidazol-6-yl)-2-(2-oxopiperidin-1-yl)acetamide] the IC50 [1] was 4 nM and the IC50 [2] was 59 nM.
Work on `CC(=O)N(C)CC(=O)N(C)c1cc2nc(-c3n[nH]c4c3C[C@@H]3C[C@]3(C)C4)[nH]c2cc1C` [Example 21, N-Methyl-N-(5-methyl-2-((4aS,5aR)-5a-methyl-1,4,4a,5,5a,6-hexahydrocyclopropa[f]indazol-3-yl)-1H-benzo[d]imidazol-6-yl)-2-(N-methylacetamido)acetamide] yielded an IC50 [1] of 4 nM and an IC50 [2] of 79 nM.
`Cc1cc2[nH]c(-c3n[nH]c4c3C[C@@H]3C[C@]3(C)C4)nc2cc1N(C)C(=O)C(C)C` [Example 22, N-Methyl-N-(5-methyl-2-((4aS,5aR)-5a-methyl-1,4,4a,5,5a,6-hexahydrocyclopropa[f]indazol-3-yl)-1H-benzo[d]imidazol-6-yl)isobutyramide] gave an IC50 [1] of 5 nM and an IC50 [2] of 43 nM.
